Assay results from PubChem BioAssay AID256 (DTP/NCI, 2004).
Inconclusive results and toxic doses are left out. The calls were made as follows: active = survival T/C of 150% or more; inactive = T/C below 125% in these data.

Tested on: CD2F1 mice, L1210 leukemia ip, survival T/C
Experiment: NCI In Vivo Anticancer Drug Screen. Data for tumor model L1210 Leukemia (intraperitoneal) in CD2F1 (CDF1) mice
Details: higher = longer survival
Method in brief: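 Mice carrying a transplanted tumor received test compound or vehicle alone. The value is the measurement in the treated group divided by that in the vehicle-treated control group.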

[1] = endpoint: mean survival time, dose: 100.0 mg/kg/injection, schedule: Q01DX001 (ip), vehicle: saline with Tween-80
[2] = endpoint: mean survival time, dose: 200.0 mg/kg/injection, schedule: Q01DX001 (ip), vehicle: saline with Tween-80
[3] = endpoint: mean survival time, dose: 50.0 mg/kg/injection, schedule: Q01DX009 (ip), vehicle: saline with Tween-80
[4] = endpoint: mean survival time, dose: 100.0 mg/kg/injection, schedule: Q04DX003 (ip), vehicle: saline with Tween-80
[5] = endpoint: mean survival time, dose: 200.0 mg/kg/injection, schedule: Q04DX003 (ip), vehicle: saline with Tween-80
[6] = endpoint: mean survival time, dose: 400.0 mg/kg/injection, schedule: Q04DX003 (ip), vehicle: saline with Tween-80

Measured: T/C

CNc1nc2cc(C)c(C)cc2n1C1OC(CO)C(O)C1O (configuration not stated)
inactive: endpoint: mean survival time, dose: 75.0 mg/kg/injection, schedule: Q01DX001 (ip), vehicle: saline 111 % of control | endpoint: mean survival time, dose: 150.0 mg/kg/injection, schedule: Q01DX001 (ip), vehicle: saline 103 % of control | endpoint: mean survival time, dose: 300.0 mg/kg/injection, schedule: Q01DX001 (ip), vehicle: saline 108 % of control

CC(=O)CC(C)=Nc1cccc(Cl)c1
inactive: endpoint: mean survival time, dose: 100.0 mg/kg/injection, schedule: Q04DX002 (ip), vehicle: saline with Tween-80 98 % of control | endpoint: mean survival time, dose: 200.0 mg/kg/injection, schedule: Q04DX002 (ip), vehicle: saline with Tween-80 95 % of control | endpoint: mean survival time, dose: 400.0 mg/kg/injection, schedule: Q04DX002 (ip), vehicle: saline with Tween-80 95 % of control

Cc1cn(C2OC3COC2C3O)c(=O)[nH]c1=O (configuration not stated)
inactive: endpoint: median survival time, dose: 12.5 mg/kg/injection, schedule: Q01DX005 (ip), vehicle: saline with Tween-80 97 % of control | endpoint: median survival time, dose: 25.0 mg/kg/injection, schedule: Q01DX005 (ip), vehicle: saline with Tween-80 97 % of control | endpoint: median survival time, dose: 50.0 mg/kg/injection, schedule: Q01DX005 (ip), vehicle: saline with Tween-80 94 % of control | endpoint: median survival time, dose: 100.0 mg/kg/injection, schedule: Q01DX005 (ip), vehicle: saline with Tween-80 102 % of control | endpoint: median survival time, dose: 200.0 mg/kg/injection, schedule: Q01DX005 (ip), vehicle: saline with Tween-80 105 % of control

CC1CC(O)C(NC(=O)NCCCl)C(O)C1 (configuration not stated)
inactive: [1] 102 % of control | [2] 102 % of control | endpoint: mean survival time, dose: 400.0 mg/kg/injection, schedule: Q01DX001 (ip), vehicle: saline with Tween-80 110 % of control

CC(CN(C)C)CN1c2ccccc2Sc2ccc(C(F)(F)F)cc21 (configuration not stated)
inactive: endpoint: mean survival time, dose: 0.63 mg/kg/injection, schedule: Q04DX003 (ip), vehicle: saline 94 % of control | endpoint: mean survival time, dose: 1.25 mg/kg/injection, schedule: Q04DX003 (ip), vehicle: saline 96 % of control | endpoint: mean survival time, dose: 2.5 mg/kg/injection, schedule: Q04DX003 (ip), vehicle: saline 91 % of control | endpoint: mean survival time, dose: 6.25 mg/kg/injection, schedule: Q01DX009 (ip), vehicle: saline 91 % of control | endpoint: mean survival time, dose: 12.5 mg/kg/injection, schedule: Q01DX009 (ip), vehicle: saline 102 % of control

O=C(CNC(=O)Nc1ccc(F)cc1)N/N=C/c1ccc(Cl)c(Cl)c1
inactive: [3] 96 % of control | endpoint: mean survival time, dose: 100.0 mg/kg/injection, schedule: Q01DX009 (ip), vehicle: saline with Tween-80 96 % of control | endpoint: mean survival time, dose: 200.0 mg/kg/injection, schedule: Q01DX009 (ip), vehicle: saline with Tween-80 100 % of control

CSC#N
inactive: endpoint: mean survival time, dose: 5.0 mg/kg/injection, schedule: Q01DX009 (ip), vehicle: Klucel (hydroxypropylcellulose) (HPC) 102 % of control | endpoint: mean survival time, dose: 10.0 mg/kg/injection, schedule: Q01DX009 (ip), vehicle: Klucel (hydroxypropylcellulose) (HPC) 102 % of control

CC(=O)OCC1OC(N=C=S)C(OC(C)=O)C(OC(C)=O)C1OC(C)=O (configuration not stated)
inactive: [3] 115 % of control

O=C1CC(=O)N(C2OC(CO)C(O)C2O)C(=O)N1 (configuration not stated)
inactive: endpoint: mean survival time, dose: 12.5 mg/kg/injection, schedule: Q01DX005 (ip), vehicle: water 94 % of control | endpoint: mean survival time, dose: 25.0 mg/kg/injection, schedule: Q01DX005 (ip), vehicle: water 100 % of control | endpoint: mean survival time, dose: 50.0 mg/kg/injection, schedule: Q01DX005 (ip), vehicle: water 106 % of control | endpoint: mean survival time, dose: 100.0 mg/kg/injection, schedule: Q01DX005 (ip), vehicle: water 106 % of control | endpoint: mean survival time, dose: 200.0 mg/kg/injection, schedule: Q01DX005 (ip), vehicle: water 105 % of control | endpoint: mean survival time, dose: 400.0 mg/kg/injection, schedule: Q01DX005 (ip), vehicle: water 100 % of control

CSc1nc(NC2OCC(O)C(O)C2O)cc(=O)n1C (configuration not stated)
inactive: endpoint: median survival time, dose: 12.5 mg/kg/injection, schedule: Q01DX005 (ip), vehicle: saline 98 % of control | endpoint: median survival time, dose: 25.0 mg/kg/injection, schedule: Q01DX005 (ip), vehicle: saline 102 % of control | endpoint: median survival time, dose: 50.0 mg/kg/injection, schedule: Q01DX005 (ip), vehicle: saline 102 % of control | endpoint: median survival time, dose: 100.0 mg/kg/injection, schedule: Q01DX005 (ip), vehicle: saline 105 % of control | endpoint: median survival time, dose: 200.0 mg/kg/injection, schedule: Q01DX005 (ip), vehicle: saline 100 % of control

CCOC(=O)Nc1ccc(S(=O)(=O)O)cc1
inactive: endpoint: mean survival time, dose: 100.0 mg/kg/injection, schedule: Q01DX001 (ip), vehicle: saline 94 % of control | endpoint: mean survival time, dose: 200.0 mg/kg/injection, schedule: Q01DX001 (ip), vehicle: saline 105 % of control | endpoint: mean survival time, dose: 400.0 mg/kg/injection, schedule: Q01DX001 (ip), vehicle: saline 98 % of control

CCCCCN1C(=O)CCC1=O
inactive: [4] 112 % of control | [5] 109 % of control | [6] 104 % of control

O=C1C=C(c2ccccc2)C/C1=C\c1ccccc1
inactive: [1] 87 % of control | [2] 87 % of control

Cc1ccccc1OP(=O)(c1ccccc1)c1ccccc1
inactive: [4] 100 % of control | [5] 105 % of control | [6] 110 % of control
